Holding throughout (assay type): cell-based
In experiment [1] the test system is Clostridium difficile. Briefly: Activating effect of Ar-beta-glucoside compounds on beta-glucosidase activity, colony coloration on agar media with CHE-beta-glucoside. The settings on record: equimolar compounds with CHE-beta-glucoside 0.3 g/l; 24 h. The protocol:
Six strains of Clostridium difficile were tested on the media comprising a compound which could act as a beta-glucosidase activator in these strains. That of the strain bearing the reference 08 01 091 is 056. The compounds tested as beta-glucosidase activators are as follows: • Arbutin; • O-methyl b-glucoside; • Cellobiose; • Salicin; • 4 Aminophenyl-b-glucoside; • 4-methyl-umbelliferone-b-glucoside; • aesculin.
They were tested at concentrations which make it possible to have the same molarity for each of the compounds.
The media used are prepared on the basis of the C. difficile chromID® medium indicated supra, for example 1, to which is added the CHE-beta-glucoside substrate at 0.3 g/l and, respectively, one of the compounds according to the following table:
(§1) The media are distributed into Petri dishes.
(§2) The seeding is performed from 48 h pre-cultures at 37° C. in anaerobiosis.
(§3) A suspension in physiological water at 0.5 McF is carried out and then the strains are seeded with the 10 μl calibrated loop.
Readings are performed after 24 h of incubation at 37° C. and in anaerobiosis.
(§4) Reading scale of the enzymatic activity/ coloration • 0=no activity • 0.5=very pale coloration • 1=clear low-intensity coloration • 2=distinct medium-intensity coloration, • 3=presence of an intense coloration, • 4=presence of a very intense coloration.
(§5) The coloration obtained with this substrate is grey up to an intensity of 1, and black for the other values.

The test system of experiment [2] is Clostridium difficile. Briefly: Activating effect of arbutin on a beta-glucosidase substrate (CHE-beta-glucoside), colony coloration on agar media. The settings on record: 24 h. The protocol:
Eight strains of Clostridium difficile, from the Applicant's collection, were tested on media comprising arbutin at different concentrations with or without CHE-beta-glucoside present. The reading of the dishes is then carried out at 24 h. The media is made up as follows:
C. difficile ChromID® base common to all of the media:
Then addition of arbutin and/or CHE-beta-glucoside, according to the media:
as §1, §2, §3
Readings are performed after 24 h of incubation at 37° C. in anaerobiosis.
as §4, §5

The subject of experiment [3] is Clostridium difficile. Briefly: Activating effect of arbutin on various beta-glucosidase substrates, colony coloration on agar media. The settings on record: substrates DHF-, alizarin- and 3HF-beta-glucoside; 24 h and 48 h. The protocol:
The eight strains of Clostridium difficile tested in Example 1 were tested on media comprising DHF-beta-glucoside (media A), alizarin-beta-glucoside (media B) or 3HF-beta-glucoside (Media C) and an increasing concentration of arbutin.
The reading of the dishes is then carried out at 24 h and 48 h.
The media used are prepared on the basis of the C. difficile chromID® medium indicated supra, for example 1, to which arbutin is added according to the following table:
According to the substrates, the media are therefore as follows: • DHF-beta-glucoside at 400 mg/L (media TA, 1A, 2A and 3A) • Alizarin-beta-glucoside at 50 mg/L (media TB, 1 B, 2B and 3B) • 3HF-beta-glucoside at 300 mg/L (media TC, 1C, 2C and 3C)
as §1, §2, §3
Readings are performed after 24 h and 48 h of incubation at 37° C. in anaerobiosis.
as §4

From patent US20130137126A1, “USE OF A BETA-G[…] FOR THE DETECTION AND/OR IDENTIFICATION OF C. DIFFICILE” (BIOMERIEUX, priority 2010, published 2013) come the findings set out here.

Turning to `Nc1ccc(O[C@@H]2O[C@H](CO)[C@@H](O)[C@H](O)[C@H]2O)cc1` [4-Aminophenyl-beta-glucoside], the “activating effect on beta-glucosidase of Clostridium difficile” value (from here on “activating effect on beta-glucosidase”) with Clostridium difficile [1] was “observed activation of beta-glucosidase”. Turning to `OC[C@H]1O[C@@H](Oc2ccc(O)cc2)[C@H](O)[C@@H](O)[C@@H]1O` [Arbutin, hydroquinone-beta-D-glucoside], the “activation of the beta-glucosidase (intensification of coloration, grey to black)” value in the experiment on Clostridium difficile [2] (arbutin added in the presence of CHE-beta-glucoside) is “an activation of the beta-glucosidase is noted”. The “coloration of the colonies” value in the experiment with Clostridium difficile [2] (arbutin alone, without CHE-beta-glucoside) is given as “does not allow coloration of the colonies to be obtained”. Besides, the “coloration intensity in the presence of arbutin” value in the experiment on Clostridium difficile [3] is reported as “an improvement in the coloration intensity is noted regardless of the substrate used”. Further, the “activating effect on beta-glucosidase” value in the experiment with Clostridium difficile [1] is given as “observed activation of beta-glucosidase”. Regarding `CO[C@@H]1O[C@H](CO)[C@@H](O)[C@H](O)[C@H]1O` [O-methyl-beta-glucoside, reference compound], the “activating effect on beta-glucosidase” value in the experiment on Clostridium difficile [1] was “do not have an activating effect”. The same measure, in the same setting: as for `O=c1ccc2cc(O[C@@H]3O[C@H](CO)[C@@H](O)[C@H](O)[C@H]3O)c(O)cc2o1` [aesculin, 6,7-dihydroxy-coumarin-beta-glucoside], the entry is “observed activation of beta-glucosidase”. Same read-out and setting: the result for `O=C[C@H](O)[C@@H](O)[C@H](O[C@@H]1O[C@H](CO)[C@@H](O)[C@H](O)[C@H]1O)[C@H](O)CO` [cellobiose, 4-O-beta-D-glucopyranosyl-D-glucose, reference compound] reads “do not have an activating effect”; that for `OCc1ccccc1O[C@@H]1O[C@H](CO)[C@@H](O)[C@H](O)[C@H]1O` [salicin, 2-(hydroxymethyl)-phenyl-beta-D-glucoside], “observed activation of beta-glucosidase”.
